In general, IC50 refers to the concentration that gives 50% inhibition.

The assay addresses human BACE1 (Homo sapiens, UniProt P56817). Nature of the assay: Fluorescent kinetic assay, evaluation of BACE1 binding affinity of test compounds. Format: biochemical. Conditions: 10 nM human BACE1, 25 μM substrate WABC-6, pH 4.5, room temperature; read-out: BACE1 IC50. On the procedure: Concentration is determined by absorbance at 354 nm using an extinction coefficient of 18172 M^-1 cm^-1, the concentration of stock substrate is corrected, and the substrate stock stored in small aliquots in -80° C. […] Determination of Stock Enzyme Concentration: the stock concentration of each enzyme is determined by absorbance at 280 nm using an of 64150 M^-1 cm^-1 for hBACE1 and MuBACE1, 62870 M^-1 cm^-1 for hBACE2 in 6 M Guanidinium Hydrochloride (from Research Organics, Cat. # 5134G-2), pH 6. […] Biochem. 182, 319-326). Dilution and mixing steps: total reaction volume: 100 μL 2× inhibitor dilutions in buffer A (66.7 mM Na-Acetate, pH 4.5, 0.0667% CHAPS) were prepared, 4× enzyme dilution in buffer A (66.7 mM Na-Acetate, pH 4.5, 0.0667% CHAPS) were prepared, 100 μM substrate dilution in 1×PBS was prepared, and 50 μL 2× Inhibitor, 25 μL 100 μM substrate are added to each well of 96-well plate (from DYNEX Technologies, VWR #: 11311-046), immediately followed by 25 μL 4× enzyme (added to the inhibitor and substrate mix), and the fluorescence readings are initiated.

Chain of human BACE1 (P56817 46-501): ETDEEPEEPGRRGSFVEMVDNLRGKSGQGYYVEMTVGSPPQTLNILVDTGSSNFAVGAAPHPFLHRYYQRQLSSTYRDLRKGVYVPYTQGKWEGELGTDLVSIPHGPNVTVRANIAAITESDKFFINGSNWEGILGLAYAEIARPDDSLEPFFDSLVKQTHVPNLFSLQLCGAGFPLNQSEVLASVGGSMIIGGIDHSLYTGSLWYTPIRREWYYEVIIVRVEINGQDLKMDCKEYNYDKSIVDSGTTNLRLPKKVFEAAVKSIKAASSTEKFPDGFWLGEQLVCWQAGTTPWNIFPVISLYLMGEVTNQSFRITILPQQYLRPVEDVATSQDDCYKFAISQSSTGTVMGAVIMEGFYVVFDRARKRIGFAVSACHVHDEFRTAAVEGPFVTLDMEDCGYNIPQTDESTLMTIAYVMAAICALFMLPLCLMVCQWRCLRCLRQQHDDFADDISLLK

Consider `COCC/C=C/c1cc(C2(c3ccc(OC(F)F)c(C)c3)N=C(N)N(C)C2=O)ccc1F` (stereo not drawn) [Example 60, 2-Amino-5-[4-(difluoromethoxy)-3-methylphenyl]-5-[4-fluoro-3-((E)-4-methoxy-but-1-enyl)phenyl]-3-methyl-3,5-dihydro-4H-imidazol-4-one], for which the 50% inhibitory concentration (IC50) is below 100 nM.

Regarding `C/C=C/c1cccc(C2(c3ccc(OC(F)F)c(C)c3)N=C(N)N(C)C2=O)c1` (stereo not drawn) [Example 61, 2-Amino-5-[4-(difluoromethoxy)-3-methylphenyl]-3-methyl-5-[((E)-3-prop-1-enyl)phenyl]-3,5-dihydro-4H-imidazol-4-one], the concentration for half-maximal inhibition (IC50) was below 100 nM.

As to `COC/C=C/c1cccc(C2(c3ccc(OC(F)F)c(C)c3)N=C(N)N(C)C2=O)c1` (stereo not drawn) [Example 62, 2-Amino-5-[4-(difluoromethoxy)-3-methylphenyl]-5-[3-((E)-3-methoxyprop-1-enyl)phenyl]-3-methyl-3,5-dihydro-4H-imidazol-4-one], the IC50 was below 100 nM.

Regarding `Cc1cc(C2(c3cccc(/C=C/CCF)c3)N=C(N)N(C)C2=O)ccc1OC(F)F` (stereo not drawn) [Example 63, 2-Amino-5-[4-(difluoromethoxy)-3-methylphenyl]-5-[3-((E)-4-fluorobut-1-enyl)phenyl]-3-methyl-3,5-dihydro-4H-imidazol-4-one], the IC50 is below 100 nM.

As to `COCC/C=C/c1cccc(C2(c3ccc(OC(F)F)c(C)c3)N=C(N)N(C)C2=O)c1` (stereo not drawn) [Example 64, 2-Amino-5-[4-(difluoromethoxy)-3-methylphenyl]-5-[3-((E)-4-methoxybut-1-enyl)phenyl]-3-methyl-3,5-dihydro-4H-imidazol-4-one], the half-inhibitory concentration (IC50) is below 100 nM.

In the case of `C/C=C/c1cccc(C2(c3ccc(OC(F)F)c(Cl)c3)N=C(N)N(C)C2=O)c1` (stereo not drawn) [Example 65, 2-Amino-5-[3-chloro-4-(difluoromethoxy)phenyl]-3-methyl-5-[((E)-3-prop-1-enyl)phenyl]-3,5-dihydro-4H-imidazol-4-one], the IC50 is below 100 nM.

With `COC/C=C/c1cccc(C2(c3ccc(OC(F)F)c(Cl)c3)N=C(N)N(C)C2=O)c1` (stereo not drawn) [Example 66, 2-Amino-5-[3-chloro-4-(difluoromethoxy)phenyl]-5-[3-((E)-3-methoxyprop-1-enyl)phenyl]-3-methyl-3,5-dihydro-4H-imidazol-4-one], the IC50 is below 100 nM.

On to `COCC/C=C/c1cccc(C2(c3ccc(OC(F)F)c(Cl)c3)N=C(N)N(C)C2=O)c1` (stereo not drawn) [Example 67, 2-Amino-5-[3-chloro-4-(difluoromethoxy)phenyl)-5-[3-((E)-4-methoxybut-1-enyl)phenyl]-3-methyl-3,5-dihydro-4H-imidazol-4-one], for which the IC50 is below 100 nM.

Take `CN1C(=O)C(c2cccc(/C=C/CCF)c2)(c2ccc(OC(F)F)c(Cl)c2)N=C1N` (stereo not drawn) [Example 68, 2-Amino-5-[3-chloro-4-(difluoromethoxy)phenyl)-5-[3-((E)-4-fluoro-but-1-enyl)phenyl]-3-methyl-3,5-dihydro-4H-imidazol-4-one]: the 50% inhibitory concentration (IC50) was below 100 nM.

As for `COCC#Cc1cccc([C@@]2(c3ccc(OC(F)F)c(C)c3)N=C(N)N(C)C2=O)c1` [Example 69, (5S)-2-Amino-4-(4-(difluoromethoxy)-3-methylphenyl)-4-(3-(3-methoxyprop-1-ynyl)phenyl)-1-methyl-1H-imidazol-5(4H)-one], the 50% inhibitory concentration (IC50) was below 100 nM.

For `COCC#Cc1cccc([C@]2(c3ccc(OC(F)F)c(C)c3)N=C(N)N(C)C2=O)c1` [Example 70, (5R)-2-Amino-4-(4-(difluoromethoxy)-3-methylphenyl)-4-(3-(3-methoxyprop-1-ynyl)phenyl)-1-methyl-1H-imidazol-5(4H)-one], the IC50 is 110 to 1000 nM.

As to `Cc1cc(C2(c3ccc(OC(F)F)c(C)c3)N=C(N)N(C)C2=O)ccc1OC(F)F` [Example 71, 2-Amino-5,5-bis-[4-(difluoromethoxy)-3-methylphenyl]-3-methyl-3,5-dihydro-4H-imidazol-4-one], the IC50 is 110 to 1000 nM.

For the origin of these results see patent publication US20090042964A1, “AMINO-5-[SUBSTITUTED-4-(DIFLUOROMETHOXY)PHENYL]-5-PHENYLIMIDAZOLONE COMPOUNDS AS BETA-SECRETASE INHIBITORS” (Wyeth, priority 2007, published 2009).
